According to US10745382B2 (BRISTOL-MYERS SQUIBB COMPANY, priority 2015, dated 2020):

Biological target: T1, PD-1/PD-L1 (Homo sapiens, UniProt Q9NZQ7)
T1 construct: made in house; host or cells: HEK293T
Assay: PD-1/PD-L1 Homogenous Time-Resolved Fluorescence (HTRF) binding assay
Details: PD-L1-His 10 nM, PD-1-Ig 20 nM; numeric IC50; read-out: Range or IC50
Method in brief: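 Read-out is time-resolved FRET between europium cryptate-labelled anti-Ig (1 nM final) and APC-labelled anti-His (20 nM final), both dispensed onto the binding mix. Assay buffer: dPBS containing 0.1% bovine serum albumin and 0.05% Tween-20.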

T1 sequence (Q9NZQ7 with tags, fused parts or gaps): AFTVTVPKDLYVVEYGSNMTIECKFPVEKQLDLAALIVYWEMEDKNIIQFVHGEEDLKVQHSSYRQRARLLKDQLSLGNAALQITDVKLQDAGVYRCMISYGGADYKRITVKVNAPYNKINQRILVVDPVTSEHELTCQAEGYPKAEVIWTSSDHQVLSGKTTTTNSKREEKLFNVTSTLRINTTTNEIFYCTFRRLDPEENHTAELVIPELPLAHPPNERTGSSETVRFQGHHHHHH

| SMILES | IC50 [nM] |
| --- | --- |
| CC(=O)NC1CCN(CCCOc2cccc(-c3cccc(COc4cc(O)c(CO)cc4Cl)c3C)c2Cl)C1 (stereo not shown) [Example 2020, N-(1-(3-((2-chloro-3′-((2-chloro-5-hydroxy-4-(hydroxymethyl)phenoxy)methyl)-2′-methyl-[1,1′-biphenyl]-3-yl)oxy)propyl)pyrrolidin-3-yl)acetamide] | 63 |

Same assay, conditions: PD-L1-His 10 nM, PD-1-Ig 20 nM; value given as range class; read-out: Range or IC50

| SMILES | IC50 [nM] |
| --- | --- |
| Cc1c(COc2cc(OCc3cncc(C#N)c3)c(CN3CCC[C@@H]3CO)cc2Cl)cccc1-c1cccc(OCCCN2CCC[C@@H]2CO)c1F [Example 1534, 5-((4-chloro-5-((2′-fluoro-3′-(3-((R)-2-(hydroxymethyl)pyrrolidin-1-yl)propoxy)-2-methyl-[1,1′-biphenyl]-3-yl)methoxy)-2-(((R)-2-(hydroxymethyl)pyrrolidin-1-yl)methyl)phenoxy)methyl)nicotinonitrile] | 0.21 to 10 |
| Cc1c(COc2cc(OCc3cncc(C#N)c3)c(CN3CCCC[C@H]3C(=O)O)c(C)c2Cl)cccc1-c1cccc(OCCCN2CC[C@@H](O)C2)c1C [Example 4101, (S)-1-(3-chloro-6-((5-cyanopyridin-3-yl)methoxy)-4-((3′-(3-((R)-3-hydroxypyrrolidin-1-yl)propoxy)-2,2′-dimethyl-[1,1′-biphenyl]-3-yl)methoxy)-2-methylbenzyl)piperidine-2-carboxylic Acid] | 0.21 to 10 |
| Cc1c(COc2cc(OCc3cncc(C#N)c3)c(CN[C@@](C)(CO)C(=O)O)cc2Cl)cccc1-c1cccc(CN(C)CCN2CCS(=O)(=O)CC2)c1C [Example 4081, (S)-2-((5-chloro-2-((5-cyanopyridin-3-yl)methoxy)-4-((3′-(((2-(1,1-dioxidothiomorpholino)ethyl)(methyl)amino)methyl)-2,2′-dimethyl-[1,1′-biphenyl]-3-yl)methoxy)benzyl)amino)-3-hydroxy-2-methylpropanoic Acid] | 10 to 100 |
| Cc1c(COc2ccc(CN3CCCC[C@H]3C(=O)O)c(C)c2Cl)cccc1-c1cccc(OCCCN2CC[C@@H](O)C2)c1C [Example 4524, (S)-1-(3-chloro-4-((3′-(3-((R)-3-hydroxypyrrolidin-1-yl)propoxy)-2,2′-dimethyl-[1,1′-biphenyl]-3-yl)methoxy)-2-methylbenzyl)piperidine-2-carboxylic Acid] | 10 to 100 |
| CCNC(=O)c1cccc(-c2cccc(COc3cc(OCc4cncc(C#N)c4)c(CN4C[C@H](O)C[C@H]4C(=O)O)cc3Cl)c2C)c1C [Example 4008, (2S,4R)-1-(5-chloro-2-((5-cyanopyridin-3-yl)methoxy)-4-((3′-(ethylcarbamoyl)-2,2′-dimethyl-[1,1′-biphenyl]-3-yl)methoxy)benzyl)-4-hydroxypyrrolidine-2-carboxylic Acid] | 10 to 100 |
| Cc1c(COc2cc(OCc3cncc(C#N)c3)c(CN[C@@](C)(CO)C(=O)O)cc2Cl)cccc1-c1cccc(OCCCN2CCC(F)(F)C2)c1C [Example 4119, (S)-2-((5-chloro-2-((5-cyanopyridin-3-yl)methoxy)-4-((3′-(3-(3,3-difluoropyrrolidin-1-yl)propoxy)-2,2′-dimethyl-[1,1′-biphenyl]-3-yl)methoxy)benzyl)amino)-3-hydroxy-2-methylpropanoic Acid] | 0.21 to 10 |
| Cc1c(COc2cc(OCc3cncc(C#N)c3)c(CN3CCCC[C@H]3C(=O)O)cc2Cl)cccc1-c1cccc(OCCCNCC(C)(C)CO)c1C [Example 2234, (2S)-1-(5-chloro-2-((5-cyanopyridin-3-yl)methoxy)-4-((3′-(3-(3-hydroxy-2,2-dimethylpropylamino)propoxy)-2,2′-dimethylbiphenyl-3-yl)methoxy)benzyl)piperidine-2-carboxylic Acid] | 0.21 to 10 |
| Cc1c(COc2cc(OCc3cncc(C(N)=O)c3)c(CN[C@@](C)(CO)C(=O)O)cc2Cl)cccc1-c1cccc(OCCCN2CCC(O)(CC(=O)O)C2)c1Cl (stereo partly drawn) [Example 1518, (2S)-2-((2-((5-carbamoylpyridin-3-yl)methoxy)-4-((3′-(3-(3-(carboxymethyl)-3-hydroxypyrrolidin-1-yl)propoxy)-2′-chloro-2-methyl-[1,1′-biphenyl]-3-yl)methoxy)-5-chlorobenzyl)amino)-3-hydroxy-2-methylpropanoic acid] | 10 to 100 |
| COC(=O)C1(O)CCN(CCCOc2cccc(-c3cccc(COc4cc(OCc5cncc(C#N)c5)c(CN5CCC(O)(C(=O)OC)CC5)cc4Cl)c3C)c2C)CC1 [Example 1091, methyl 1-(5-chloro-2-((5-cyanopyridin-3-yl)methoxy)-4-((3′-(3-(4-hydroxy-4-(methoxycarbonyl)piperidin-1-yl)propoxy)-2,2′-dimethyl-[1,1′-biphenyl]-3-yl)methoxy)benzyl)-4-hydroxypiperidine-4-carboxylate] | 0.21 to 10 |
| Cc1c(COc2cc(OCc3cncc(C#N)c3)c(CNC(C)(CO)CO)cc2Cl)cccc1-c1cccc(OCC(CO)CO)c1Cl [Example 2079, 5-((4-chloro-5-((2′-chloro-3′-(3-hydroxy-2-(hydroxymethyl)propoxy)-2-methyl-[1,1′-biphenyl]-3-yl)methoxy)-2-(((1,3-dihydroxy-2-methylpropan-2-yl)amino)methyl)phenoxy)methyl)nicotinonitrile] | 0.21 to 10 |
| Cc1c(COc2cc(OCc3cncc(C#N)c3)c(CN[C@](C)(CO)C(=O)O)cc2Cl)cccc1-c1cccc(OCCCN2[C@@H]3CC[C@H]2C[C@@H](O)C3)c1 [Example 3019, (R)-2-((5-chloro-2-((5-cyanopyridin-3-yl)methoxy)-4-((3′-(3-((1R,3R,5S)-3-hydroxy-8-azabicyclo[3.2.1]octan-8-yl)propoxy)-2-methyl-[1,1′-biphenyl]-3-yl)methoxy)benzyl)amino)-3-hydroxy-2-methylpropanoic Acid] | 0.21 to 10 |
| Cc1cc(OCc2cccc(-c3cccc(OCCCN4CC[C@@H](O)C4)c3C)c2C)cc(OCc2cncc(C#N)c2)c1CN1CCCC[C@H]1C(=O)O [Example 4086, (S)-1-(2-((5-cyanopyridin-3-yl)methoxy)-4-((3′-(3-((R)-3-hydroxypyrrolidin-1-yl)propoxy)-2,2′-dimethyl-[1,1′-biphenyl]-3-yl)methoxy)-6-methylbenzyl)piperidine-2-carboxylic Acid] | 0.21 to 10 |
| Cc1c(COc2cc(OCc3cncc(C#N)c3)c(CN[C@@H](CN)C(=O)O)cc2Cl)cccc1-c1cccc(C(=O)N2CCOCC2)c1C [Example 4059, (S)-3-amino-2-((5-chloro-2-((5-cyanopyridin-3-yl)methoxy)-4-((2,2′-dimethyl-3′-(morpholine-4-carbonyl)-[1,1′-biphenyl]-3-yl)methoxy)benzyl)amino)propanoic Acid] | 100 to 2000 |
| Cc1c(COc2ccc(CN3CCCC[C@H]3C(=O)O)cc2Cl)cccc1-c1cccc(OCCCN2CC[C@@H](O)C2)c1C [Example 3072, (S)-1-(3-chloro-4-((3′-(3-((R)-3-hydroxypyrrolidin-1-yl)propoxy)-2,2′-dimethyl-[1,1′-biphenyl]-3-yl)methoxy)benzyl)piperidine-2-carboxylic Acid] | 0.21 to 10 |
| CCN(CC)C(=O)c1cccc(-c2cccc(COc3cc(OCc4cncc(C#N)c4)c(CN4C[C@@H](O)C[C@H]4C(=O)O)cc3Cl)c2C)c1C [Example 4043, (2S,4S)-1-(5-chloro-2-((5-cyanopyridin-3-yl)methoxy)-4-((3′-(diethylcarbamoyl)-2,2′-dimethyl-[1,1′-biphenyl]-3-yl)methoxy)benzyl)-4-hydroxypyrrolidine-2-carboxylic Acid] | 10 to 100 |
| Cc1c(COCCN2CC[C@@H](O)C2)cccc1-c1cccc(COc2cc(OCc3cncc(C#N)c3)c(CNC3(C(=O)O)CC3)cc2Cl)c1C [Example 4124, (R)-1-((5-chloro-2-((5-cyanopyridin-3-yl)methoxy)-4-((3′-((2-(3-hydroxypyrrolidin-1-yl)ethoxy)methyl)-2,2′-dimethyl-[1,1′-biphenyl]-3-yl)methoxy)benzyl)amino)cyclopropane-1-carboxylic Acid] | 0.21 to 10 |
| Cc1c(COc2cc(OCc3cncc(C#N)c3)c(CNC[C@H](O)CO)cc2Cl)cccc1-c1cccc(OCCCO)c1Cl [Example 2116, (S)-5-((4-chloro-5-((2′-chloro-3′-(3-hydroxypropoxy)-2-methyl-[1,1′-biphenyl]-3-yl)methoxy)-2-(((2,3-dihydroxypropyl)amino)methyl)phenoxy)methyl)nicotinonitrile] | 0.21 to 10 |
| C=CC(=O)NCCNCc1cc(Cl)c(OCc2cccc(-c3cccc(OCCCN4CC[C@@H](O)C4)c3C)c2C)cc1OCc1cncc(C#N)c1 [Example 1031, (R)—N-(2-((5-chloro-2-((5-cyanopyridin-3-yl)methoxy)-4-((3′-(3-(3-hydroxypyrrolidin-1-yl)propoxy)-2,2′-dimethyl-[1,1′-biphenyl]-3-yl)methoxy)benzyl)amino)ethyl)acrylamide] | 10 to 100 |
| CNC(=O)c1cccc(-c2cccc(COc3cc(OCc4cncc(C#N)c4)c(CN4CCCC[C@H]4C(=O)O)cc3Cl)c2C)c1C [Example 4011, (S)-1-(5-chloro-2-((5-cyanopyridin-3-yl)methoxy)-4-((2,2′-dimethyl-3′-(methylcarbamoyl)-[1,1′-biphenyl]-3-yl)methoxy)benzyl)piperidine-2-carboxylic Acid] | 10 to 100 |
| Cc1c(COc2cc(OCc3cncc(C#N)c3)c(CN3CCCC[C@H]3C(=O)O)cc2Cl)cccc1-c1cccc(C(=O)N(C)C)c1C [Example 4030, (S)-1-(5-chloro-2-((5-cyanopyridin-3-yl)methoxy)-4-((3′-(dimethylcarbamoyl)-2,2′-dimethyl-[1,1′-biphenyl]-3-yl)methoxy)benzyl)piperidine-2-carboxylic Acid] | 100 to 2000 |
| Cc1c(COc2cc(OCc3cncc(C#N)c3)c(CN[C@@](C)(CO)C(=O)O)cc2Cl)cccc1-c1cccc(OCCCNC[C@H](O)CO)c1Cl [Example 2006, (S)-2-((5-chloro-4-((2′-chloro-3′-(3-(((S)-2,3-dihydroxypropyl)amino)propoxy)-2-methyl-[1,1′-biphenyl]-3-yl)methoxy)-2-((5-cyanopyridin-3-yl)methoxy)benzyl)amino)-3-hydroxy-2-methylpropanoic Acid] | 0.21 to 10 |
